How the values were obtained:
Assay in all cases: relative viability (nuclei count vs DMSO), 5 days (fraction); higher = more cells survive
[1] = compound: C1CSC2=C(C(=O)N1)SC3=C2C=C(C=C3)O [kb NB 142-70] + Cc1cc(Nc2cc(N3CCN(C)CC3)nc(Sc3ccc(NC(=O)C4CC4)cc3)n2)n[nH]1 [Tozasertib] (partner 0.1 µM)
Outline: (§1)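 The day after seeding in 1536-well plates, lung cancer cell lines were treated by pin tool with a single drug, or with a fixed anchor-drug dose together with five library-drug doses (not always all listed) in √10 steps. After 5 days, a combined fix-and-stain solution (final 0.05% Triton X-100, 1% formaldehyde, 1 ug/ml Hoechst) was added. Nuclei counted on 4× images gave relative viability as treated counts over vehicle counts, reported as the median of duplicate plates.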

kb NB 142-70 + AZD7762 = compound: C1CSC2=C(C(=O)N1)SC3=C2C=C(C=C3)O [kb NB 142-70] + NC(=O)Nc1cc(-c2cccc(F)c2)sc1C(=O)N[C@H]1CCCNC1 [AZD7762] (partner 0.2 µM)
Outline: as §1

kb NB 142-70 + Olaparib = compound: C1CSC2=C(C(=O)N1)SC3=C2C=C(C=C3)O [kb NB 142-70] + O=C(c1cc(Cc2n[nH]c(=O)c3ccccc23)ccc1F)N1CCN(C(=O)C2CC2)CC1 [Olaparib] (partner 8 µM)
Outline: as §1

[2] = compound: C1CSC2=C(C(=O)N1)SC3=C2C=C(C=C3)O [kb NB 142-70] + CC(C)C[C@H](NC(=O)[C@H](Cc1ccccc1)NC(=O)c1cnccn1)B(O)O [Bortezomib] (partner 0.002 µM)
Outline: as §1

kb NB 142-70 + Lapatinib = compound: C1CSC2=C(C(=O)N1)SC3=C2C=C(C=C3)O [kb NB 142-70] + CS(=O)(=O)CCNCc1ccc(-c2ccc3ncnc(Nc4ccc(OCc5cccc(F)c5)c(Cl)c4)c3c2)o1 [Lapatinib] (partner 2 µM)
Outline: as §1

[3] = compound: NCC(=O)Nc1ccc(-n2nc(C(F)(F)F)cc2-c2ccc3c(ccc4ccccc43)c2)cc1 + C[C@@H](Oc1cc(-c2cnn(C3CCNCC3)c2)cnc1N)c1c(Cl)ccc(F)c1Cl [Crizotinib] (partner 1 µM)
Outline: as §1

| Cell Line | relative viability ([1]; first compound 0.1 µM) | relative viability ([1]; first compound 1 µM) | relative viability ([1]; first compound 3.162 µM) | relative viability (kb NB 142-70 + AZD7762; first compound 0.1 µM) | relative viability (kb NB 142-70 + AZD7762; first compound 1 µM) | relative viability (kb NB 142-70 + AZD7762; first compound 3.162 µM) | relative viability (kb NB 142-70 + Olaparib; first compound 0.1 µM) | relative viability (kb NB 142-70 + Olaparib; first compound 1 µM) | relative viability (kb NB 142-70 + Olaparib; first compound 3.162 µM) | relative viability ([2]; first compound 0.1 µM) | relative viability ([2]; first compound 1 µM) | relative viability ([2]; first compound 3.162 µM) | relative viability (kb NB 142-70 + Lapatinib; first compound 0.1 µM) | relative viability (kb NB 142-70 + Lapatinib; first compound 1 µM) | relative viability (kb NB 142-70 + Lapatinib; first compound 3.162 µM) | relative viability ([3]; first compound 0.02 µM) | relative viability ([3]; first compound 0.06325 µM) | relative viability ([3]; first compound 0.2 µM) | relative viability ([3]; first compound 0.6325 µM) | relative viability ([3]; first compound 2 µM) |
| --- | --- | --- | --- | --- | --- | --- | --- | --- | --- | --- | --- | --- | --- | --- | --- | --- | --- | --- | --- | --- |
| NCI-H2342 | 0.447 | 0.614 | 0.544 | 0.548 | 0.49 | 0.518 | 0.397 | 0.458 | 0.408 |  |  |  |  |  |  |  |  |  |  |  |
| HCC-15 | 0.427 | 0.471 | 0.227 | 1.2 | 1.29 | 1.28 | 0.722 | 0.748 | 0.752 | 0.972 | 1.1 | 1.1 | 0.854 | 0.932 | 0.743 | 0.817 | 0.808 | 0.795 | 0.773 | 0.768 |
| A-427 | 0.252 | 0.221 | 0.195 | 0.783 | 0.93 | 1.08 | 0.747 | 0.77 | 0.52 | 1.01 | 1.05 | 1.01 | 1.12 | 1.14 | 1.04 | 0.87 | 0.848 | 1.04 | 0.935 | 0.865 |
| NCI-H2228 | 0.254 | 0.217 | 0.146 |  |  |  | 0.694 | 0.587 | 0.362 | 1.08 | 0.689 | 0.303 | 1.07 | 1.02 | 0.323 | 0.56 | 0.652 | 0.603 | 0.544 | 0.493 |
| SK-MES-1 | 0.867 | 0.85 | 0.221 |  |  |  | 0.719 | 0.484 | 0.181 |  |  |  | 0.448 | 0.503 | 0.541 | 1.04 | 0.994 | 1.04 | 0.979 | 1.03 |
| SW 1573 | 0.153 | 0.182 | 0.146 |  |  |  | 0.421 | 0.305 | 0.177 | 1.18 | 0.967 | 0.322 | 1.03 | 0.877 | 0.988 | 0.756 | 0.756 | 0.837 | 0.848 | 0.911 |
| NCI-H661 | 0.337 | 0.356 | 0.353 |  |  |  | 0.731 | 0.733 | 0.759 | 0.808 | 0.805 | 0.802 | 0.511 | 0.478 | 0.492 | 1.16 | 0.905 | 1.11 |  | 1.01 |
| NCI-H1623 | 0.441 | 0.433 | 0.379 |  |  |  |  |  |  |  |  |  |  |  |  |  |  |  |  |  |
| Calu-6 |  |  |  |  |  |  | 0.589 | 0.457 | 0.287 | 1.01 | 0.946 | 0.62 | 1.07 | 0.972 | 0.627 | 0.862 | 0.854 | 0.853 | 0.838 | 0.774 |
| NCI-H1650 | 0.47 | 0.334 | 0.339 |  |  |  | 0.9 | 0.881 | 0.854 | 0.179 | 0.206 | 0.203 | 0.874 | 0.88 | 0.69 | 1.11 | 1.14 | 0.836 | 1.08 | 1.19 |
| NCI-H2170 | 0.688 | 0.735 | 0.481 | 0.899 | 1.04 | 0.724 | 0.661 | 0.596 | 0.543 |  |  |  | 0.295 | 0.305 | 0.258 | 1.24 | 1.22 | 1.1 | 1.22 | 1.22 |
| NCI-H1299 |  |  |  |  |  |  | 1.02 | 0.949 | 0.837 | 1.01 | 1.07 | 1.05 | 0.919 | 1.02 | 1 | 0.97 | 0.969 | 0.991 | 0.944 | 1 |
| EBC-1 |  |  |  |  |  |  | 0.775 | 0.587 | 0.385 | 0.592 | 0.546 | 0.358 | 0.233 | 0.211 | 0.217 | 0.178 | 0.236 | 0.204 | 0.198 | 0.25 |
| NCI-H1648 | 0.396 | 0.524 | 0.398 | 0.585 | 0.811 | 0.933 | 0.645 | 0.707 | 0.738 |  |  |  |  |  |  |  |  |  |  |  |
| NCI-H1792 |  |  |  | 0.803 | 0.907 | 0.857 | 0.406 | 0.547 | 0.619 | 0.992 | 0.988 | 1.01 | 0.87 | 0.85 | 1.03 | 1.01 | 1.02 | 0.976 | 1 | 0.945 |
| ChaGo-K-1 | 0.244 | 0.246 | 0.219 | 0.896 | 0.873 | 0.888 | 0.489 | 0.361 | 0.362 | 1.06 | 1.1 | 0.951 |  |  |  | 1.14 | 1.08 | 1.01 | 1.05 | 1.03 |
| COR-L23 | 0.237 | 0.157 | 0.134 |  |  |  | 0.344 | 0.442 | 0.263 | 0.872 | 0.913 | 0.51 | 0.972 | 1 | 0.586 | 0.825 | 0.638 | 0.823 | 0.703 | 0.631 |
